ChEMBL document CHEMBL4406836, “The design of a cell-selective fowlicidin-1-derived peptide with both antimicrobial and anti-inflammatory activities” (Eur J Med Chem, 2019)
Converted amounts (≈) assume the structure as drawn. The source made the active and inactive calls. The calls are words filed in the database; no cut-off is given here.

Tests used:
Staphylococcus aureus [1] = test: Antibacterial activity against methicillin-resistant Staphylococcus aureus CCARM 3089 assessed as reduction in bacterial growth incubated for 18 hrs by spectrophotometry based microtiter broth dilution method; format: functional; details: CCARM 3089, 18 h
Staphylococcus aureus [2] = test: Antibacterial activity against methicillin-resistant Staphylococcus aureus CCARM 3095 assessed as reduction in bacterial growth incubated for 18 hrs by spectrophotometry based microtiter broth dilution method; format: functional; details: CCARM 3095, 18 h
Pseudomonas aeruginosa [3] = test: Antibacterial activity against multidrug-resistant Pseudomonas aeruginosa CCARM 2095 assessed as reduction in bacterial growth incubated for 18 hrs by spectrophotometry based microtiter broth dilution method; format: functional; details: CCARM 2095, 18 h
Pseudomonas aeruginosa [4] = test: Antibacterial activity against multidrug-resistant Pseudomonas aeruginosa CCARM 2109 assessed as reduction in bacterial growth incubated for 18 hrs by spectrophotometry based microtiter broth dilution method; format: functional; details: CCARM 2109, 18 h
Enterococcus faecium = test: Antibacterial activity against vancomycin-resistant Enterococcus faecium ATCC 51559 assessed as reduction in bacterial growth incubated for 18 hrs by spectrophotometry based microtiter broth dilution method; format: functional; details: ATCC 51559, 18 h
Pseudomonas aeruginosa [5] = format: functional; details: CCARM 2095, 72 h
Pseudomonas aeruginosa [6] = format: functional; details: CCARM 2095, 72 h; remark: listed apart in the source
Staphylococcus aureus [7] = test: Antibacterial activity against methicillin-resistant Staphylococcus aureus CCARM 3089 assessed as reduction in bacterial growth incubated for 72 hrs by spectrophotometry; format: functional; details: CCARM 3089, 72 h
Staphylococcus aureus [8] = test: Antibacterial activity against methicillin-resistant Staphylococcus aureus CCARM 3089 assessed as reduction in bacterial growth incubated for 72 hrs in presence of 128 uM chloramphenicol by spectrophotometry; format: functional; details: CCARM 3089, 72 h
Staphylococcus aureus [9] = format: functional; details: CCARM 3089, 72 h
Staphylococcus aureus [10] = format: functional; details: CCARM 3089, 72 h; remark: listed apart in the source
Pseudomonas aeruginosa [11] = test: Fractional inhibitory concentration, ratio of MIC of compound in presence of […] uM chloramphenicol to MIC of chloramphenicol for antibacterial activity against multidrug-resistant Pseudomonas aeruginosa CCARM 2095; format: functional
Pseudomonas aeruginosa [12] = test: Fractional inhibitory concentration, ratio of MIC of compound in presence of […] uM ciprofloxacin to MIC of ciprofloxacin for antibacterial activity against multidrug-resistant Pseudomonas aeruginosa CCARM 2095; format: functional
Pseudomonas aeruginosa [13] = test: Fractional inhibitory concentration, ratio of MIC of compound in presence of […] uM oxacillin to MIC of oxacillin for antibacterial activity against multidrug-resistant Pseudomonas aeruginosa CCARM 2095; format: functional
Pseudomonas aeruginosa [14] = test: Fractional inhibitory concentration, ratio of MIC of compound in presence of chloramphenicol to MIC of compound for antibacterial activity against multidrug-resistant Pseudomonas aeruginosa CCARM 2095; format: functional
Pseudomonas aeruginosa [15] = test: Fractional inhibitory concentration, ratio of MIC of compound in presence of ciprofloxacin to MIC of compound for antibacterial activity against multidrug-resistant Pseudomonas aeruginosa CCARM 2095; format: functional
Pseudomonas aeruginosa [16] = test: Fractional inhibitory concentration, ratio of MIC of compound in presence of oxacillin to MIC of compound for antibacterial activity against multidrug-resistant Pseudomonas aeruginosa CCARM 2095; format: functional
Staphylococcus aureus [17] = test: Fractional inhibitory concentration, ratio of MIC of compound in presence of 128 uM chloramphenicol to MIC of chloramphenicol for antibacterial activity against methicillin-resistant Staphylococcus aureus CCARM 3089; format: functional
Staphylococcus aureus [18] = test: Fractional inhibitory concentration, ratio of MIC of compound in presence of […] uM oxacillin to MIC of oxacillin for antibacterial activity against methicillin-resistant Staphylococcus aureus CCARM 3089; format: functional
Staphylococcus aureus [19] = test: Fractional inhibitory concentration, ratio of MIC of compound in presence of chloramphenicol to MIC of chloramphenicol for antibacterial activity against methicillin-resistant Staphylococcus aureus CCARM 3089; format: functional
Staphylococcus aureus [20] = test: Fractional inhibitory concentration, ratio of MIC of compound in presence of ciprofloxacin to MIC of ciprofloxacin for antibacterial activity against methicillin-resistant Staphylococcus aureus CCARM 3089; format: functional
Staphylococcus aureus [21] = test: Fractional inhibitory concentration, ratio of MIC of compound in presence of oxacillin to MIC of oxacillin for antibacterial activity against methicillin-resistant Staphylococcus aureus CCARM 3089; format: functional
Pseudomonas aeruginosa [22] = test: Fractional inhibitory concentration index, sum of ratio of MIC of compound in presence of […] uM chloramphenicol to MIC of chloramphenicol and ratio of MIC of compound in presence of chloramphenicol to MIC of compound for antibacterial activity against multidrug-resistant Pseudomonas aeruginosa CCARM 2095; format: functional
Pseudomonas aeruginosa [23] = test: Fractional inhibitory concentration index, sum of ratio of MIC of compound in presence of […] and ratio of MIC of compound in presence of ciprofloxacin to MIC of compound for antibacterial activity against multidrug-resistant Pseudomonas aeruginosa CCARM 2095; format: functional
Pseudomonas aeruginosa [24] = test: Fractional inhibitory concentration index, sum of ratio of MIC of compound in presence of […] and ratio of MIC of compound in presence of oxacillin to MIC of compound for antibacterial activity against multidrug-resistant Pseudomonas aeruginosa CCARM 2095; format: functional
Staphylococcus aureus [25] = test: Fractional inhibitory concentration index, sum of ratio of MIC of compound in presence of 128 uM chloramphenicol to MIC of chloramphenicol and ratio of MIC of compound in presence of chloramphenicol to MIC of chloramphenicol for antibacterial activity against methicillin-resistant Staphylococcus aureus CCARM 3089; format: functional
Staphylococcus aureus [26] = test: Fractional inhibitory concentration index, sum of ratio of MIC of compound in presence of […] uM oxacillin to MIC of oxacillin and ratio of MIC of compound in presence of oxacillin […] antibacterial activity against methicillin-resistant Staphylococcus aureus CCARM 3089; format: functional
Staphylococcus aureus [27] = test: Potentiation of chloramphenicol-induced antibacterial activity against methicillin-resistant Staphylococcus aureus CCARM 3089 assessed as reduction in chloramphenicol MIC at 1/16th MIC incubated for 72 hrs by spectrophotometry; format: functional
Pseudomonas aeruginosa [28] = test: Potentiation of chloramphenicol-induced antibacterial activity against mutidrug-resistant Pseudomonas aeruginosa CCARM 2095 assessed as reduction in chloramphenicol MIC at 1/16th MIC incubated for 72 hrs by spectrophotometry; format: functional
Pseudomonas aeruginosa [29] = test: Potentiation of ciprofloxacin-induced antibacterial activity against mutidrug-resistant Pseudomonas aeruginosa CCARM 2095 assessed as reduction in ciprofloxacin MIC at 1/16th MIC incubated for 72 hrs by spectrophotometry; format: functional
Pseudomonas aeruginosa [30] = test: Potentiation of oxacillin-induced antibacterial activity against mutidrug-resistant Pseudomonas aeruginosa CCARM 2095 assessed as reduction in oxacillin MIC at 1/16th MIC incubated for 72 hrs by spectrophotometry; format: functional
Staphylococcus aureus [31] = test: Potentiation of ciprofloxacin-induced antibacterial activity against methicillin-resistant Staphylococcus aureus CCARM 3089 assessed as reduction in ciprofloxacin MIC at 1/16th MIC incubated for 72 hrs by spectrophotometry; format: functional
Staphylococcus aureus [32] = test: Potentiation of oxacillin-induced antibacterial activity against methicillin-resistant Staphylococcus aureus CCARM 3089 assessed as reduction in oxacillin MIC at 1/16th MIC incubated for 72 hrs by spectrophotometry; format: functional
Staphylococcus aureus [33] = test: Induction of cytoplasmic membrane depolarization in Staphylococcus aureus at 2 times of MIC for a period of 600 sec by DiSC3-5-fluorescence based assay; format: functional, organism-based
Staphylococcus aureus [34] = test: Induction of cytoplasmic membrane depolarization in Staphylococcus aureus at 2 times of MIC within 4 mins by SYTOX green-based assay; format: functional, organism-based
Escherichia coli = test: Induction of membrane integrity disruption in Escherichia coli at 2 times of MIC by propidium iodide staining based flow cytometry relative to control (reference value: 2.97 %); format: functional

CC[C@H](C)[C@H](NC(=O)[C@H](CCCCN)NC(=O)[C@H](CCC(=O)O)NC(=O)[C@H](CCCCN)NC(=O)[C@H](CO)NC(=O)[C@H](CCCCN)NC(=O)[C@H](CCCNC(=N)N)NC(=O)[C@H](Cc1ccccc1)NC(=O)[C@H](Cc1ccccc1)NC(=O)[C@H](CC(=O)O)NC(=O)CNC(=O)[C@H](CC(C)C)NC(=O)[C@@H](N)CC(C)C)C(=O)NCC(=O)N[C@@H](CCCCN)C(=O)N[C@@H](CCC(=O)O)C(=O)N[C@@H](Cc1ccccc1)C(=O)N[C@@H](CCCCN)C(=O)N[C@@H](CCCNC(=N)N)C(=O)N[C@H](C(=O)N[C@H](C(=O)N[C@@H](CCC(N)=O)C(=O)N[C@@H](CCCNC(=N)N)C(=O)N[C@H](C(=O)N[C@@H](CCCCN)C(=O)N[C@@H](CC(=O)O)C(=O)N[C@@H](Cc1ccccc1)C(=O)N[C@@H](CC(C)C)C(=O)N[C@@H](CCCNC(=N)N)C(=O)N[C@@H](CC(N)=O)C(=O)N[C@@H](CC(C)C)C(=O)N[C@H](C(=O)N1CCC[C@H]1C(=O)N[C@@H](CCCNC(=N)N)C(=O)N[C@H](C(=O)N[C@@H](CCC(=O)O)C(=O)N[C@@H](CO)C(=O)O)[C@@H](C)O)C(C)C)[C@@H](C)CC)C(C)C)[C@@H](C)CC [CATHELICIDIN]
MIC (Staphylococcus aureus [1]): 8 µM (≈ 35.9 µg/mL) | MIC (Staphylococcus aureus [2]): 16 µM (≈ 71.9 µg/mL) | MIC (Pseudomonas aeruginosa [3]): 4 µM (≈ 18 µg/mL) | MIC (Pseudomonas aeruginosa [4]): 8 µM (≈ 35.9 µg/mL) | MIC (Enterococcus faecium): 8 µM (≈ 35.9 µg/mL) | MIC (Pseudomonas aeruginosa [5]): 256 µM (≈ 1150 µg/mL) | MIC (Pseudomonas aeruginosa [6]): 512 µM (≈ 2300 µg/mL) | MIC (Staphylococcus aureus [7]): 8 µM (≈ 35.9 µg/mL) | MIC (Staphylococcus aureus [8]): 64 µM | MIC (Staphylococcus aureus [9]): 256 µM (≈ 1150 µg/mL) | MIC (Staphylococcus aureus [10]): 256 µM (≈ 1150 µg/mL) | FIC (Pseudomonas aeruginosa [11]): 0.25 | FIC (Pseudomonas aeruginosa [12]): 0.25 | FIC (Pseudomonas aeruginosa [13]): 1 | FIC (Pseudomonas aeruginosa [14]): 0.5 | FIC (Pseudomonas aeruginosa [15]): 0.5 | FIC (Pseudomonas aeruginosa [16]): 1 | FIC (Staphylococcus aureus [17]): 0.5 | FIC (Staphylococcus aureus [18]): 0.5 | FIC (Staphylococcus aureus [19]): 0.5 | FIC (Staphylococcus aureus [20]): 1 | FIC (Staphylococcus aureus [21]): 0.25 | fractional inhibitory concentration index (FICI) (Pseudomonas aeruginosa [22]): 0.75 | fractional inhibitory concentration index (FICI) (Pseudomonas aeruginosa [23]): 0.75 | fractional inhibitory concentration index (FICI) (Pseudomonas aeruginosa [24]): 2 | fractional inhibitory concentration index (FICI) (Staphylococcus aureus [25]): 1 | fractional inhibitory concentration index (FICI) (Staphylococcus aureus [26]): 0.75 | fold change (FC) (Staphylococcus aureus [27]): 2 - 16 | fold change (FC) (Pseudomonas aeruginosa [28]): 2 - 4 | fold change (FC) (Pseudomonas aeruginosa [29]): 2 - 4 | fold change (FC) (Pseudomonas aeruginosa [30]): 2 - 4 | fold change (FC) (Staphylococcus aureus [31]): 2 - 16 | fold change (FC) (Staphylococcus aureus [32]): 2 - 16 | Activity (Staphylococcus aureus [33]): Active | Activity (Staphylococcus aureus [34]): Active | Activity (Escherichia coli): 55.5%

H-LVIRWVRAGYKLYRAIKKK-NH2
MIC (Staphylococcus aureus [1]): 4 µM | MIC (Staphylococcus aureus [2]): 2 µM | MIC (Pseudomonas aeruginosa [3]): 2 µM | MIC (Pseudomonas aeruginosa [4]): 4 µM | MIC (Enterococcus faecium): 4 µM | MIC (Pseudomonas aeruginosa [5]): 32 µM | MIC (Pseudomonas aeruginosa [6]): 128 µM | MIC (Staphylococcus aureus [7]): 4 µM | MIC (Staphylococcus aureus [8]): 16 µM | MIC (Staphylococcus aureus [9]): 256 µM | MIC (Staphylococcus aureus [10]): 128 µM | FIC (Pseudomonas aeruginosa [11]): 0.031 | FIC (Pseudomonas aeruginosa [12]): 0.125 | FIC (Pseudomonas aeruginosa [13]): 0.25 | FIC (Pseudomonas aeruginosa [14]): 0.25 | FIC (Pseudomonas aeruginosa [15]): 0.5 | FIC (Pseudomonas aeruginosa [16]): 0.25 | FIC (Staphylococcus aureus [17]): 0.125 | FIC (Staphylococcus aureus [18]): 0.25 | FIC (Staphylococcus aureus [19]): 0.125 | FIC (Staphylococcus aureus [20]): 0.125 | FIC (Staphylococcus aureus [21]): 0.25 | fractional inhibitory concentration index (FICI) (Pseudomonas aeruginosa [22]): 0.281 | fractional inhibitory concentration index (FICI) (Pseudomonas aeruginosa [23]): 0.625 | fractional inhibitory concentration index (FICI) (Pseudomonas aeruginosa [24]): 0.5 | fractional inhibitory concentration index (FICI) (Staphylococcus aureus [25]): 0.25 | fractional inhibitory concentration index (FICI) (Staphylococcus aureus [26]): 0.5 | fold change (FC) (Staphylococcus aureus [27]): 4 - 32 | fold change (FC) (Pseudomonas aeruginosa [28]): 4 - 16 | fold change (FC) (Pseudomonas aeruginosa [29]): 4 - 16 | fold change (FC) (Pseudomonas aeruginosa [30]): 4 - 16 | fold change (FC) (Staphylococcus aureus [31]): 4 - 32 | fold change (FC) (Staphylococcus aureus [32]): 4 - 32 | Activity (Staphylococcus aureus [33]): Active | Activity (Staphylococcus aureus [34]): Active | Activity (Escherichia coli): 68.98%
